In data set [1] the test system is AD brain containing tau and Aβ pathology. In words: in vitro binding of tritiated tracers to frozen AD brain slices with tau and Aβ pathology. On the set-up: species or system human. The note with it: tracer 10 nM. The method, then:
(§1) The tracer was tested at 10 nM and higher concentrations were not investigated in this study.
(§2) [^3H]-AV-45 (selective for Aβ plaques) binds both tau and Aβ pathology (Aβ+/tau+, Tissue #28391) and Aβ pathology only (Aβ+/tau−, Tissue #92/050) human tissues as expected (FIG. 3L-M). As a control for the human AD tissues (Tissue #28391: FIG. 4, Tissue #92/050: FIG. 5) and striatal tissue (FIG. 6) used in this study immunohistochemistry was performed. […] Furthermore, MAO-B and MAO-A expression in the human striatal tissue (#S96/037) was confirmed using immunohistochemistry (FIG. 6).

Data set [2] concerns AD tissue containing only Aβ plaques. The experiment in a line: in vitro binding of tritiated tracers to tau-negative AD tissue. As to conditions: tracer 10 nM. Also on record: species or system human. The method, then: as §1, §2
The next data set concerns MAO. In words: in vitro binding of tritiated tracers to MAO-rich human tissue (striatum). The note with it: tracer 10 nM. The method, then: as §1
In comparison, the tau tracer [^3H]-THK-5351 and the Aβ tracer [^3H]-AV-45 were used as THK-5351 is known to also bind MAO.

For the next data set, the target named is T1, monoamine oxidase MAO-B (Homo sapiens, UniProt P27338).
T1 construct: PET imaging of the human brain with the quinoline compound; host or cells: human brain in vivo
T1 sequence (P27338 1-520): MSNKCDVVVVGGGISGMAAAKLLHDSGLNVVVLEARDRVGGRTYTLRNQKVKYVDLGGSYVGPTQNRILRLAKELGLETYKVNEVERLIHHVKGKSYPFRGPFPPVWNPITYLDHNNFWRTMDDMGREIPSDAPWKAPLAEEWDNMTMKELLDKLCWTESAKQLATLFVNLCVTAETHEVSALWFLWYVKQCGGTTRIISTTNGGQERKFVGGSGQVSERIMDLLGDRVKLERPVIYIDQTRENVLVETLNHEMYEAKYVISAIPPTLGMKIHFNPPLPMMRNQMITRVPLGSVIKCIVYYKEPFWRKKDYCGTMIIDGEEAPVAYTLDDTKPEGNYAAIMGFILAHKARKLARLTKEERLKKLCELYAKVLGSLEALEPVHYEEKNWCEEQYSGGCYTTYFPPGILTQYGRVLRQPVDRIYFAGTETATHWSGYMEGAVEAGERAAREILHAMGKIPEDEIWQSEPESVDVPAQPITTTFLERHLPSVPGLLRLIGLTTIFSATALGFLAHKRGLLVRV
As to conditions: literature; cited from earlier work.

The target of a further data set is PHF (Homo sapiens, UniProt P10636). The note with it: literature; cited from earlier work.
PHF, sequence (P10636 1-441 isoform P10636-8): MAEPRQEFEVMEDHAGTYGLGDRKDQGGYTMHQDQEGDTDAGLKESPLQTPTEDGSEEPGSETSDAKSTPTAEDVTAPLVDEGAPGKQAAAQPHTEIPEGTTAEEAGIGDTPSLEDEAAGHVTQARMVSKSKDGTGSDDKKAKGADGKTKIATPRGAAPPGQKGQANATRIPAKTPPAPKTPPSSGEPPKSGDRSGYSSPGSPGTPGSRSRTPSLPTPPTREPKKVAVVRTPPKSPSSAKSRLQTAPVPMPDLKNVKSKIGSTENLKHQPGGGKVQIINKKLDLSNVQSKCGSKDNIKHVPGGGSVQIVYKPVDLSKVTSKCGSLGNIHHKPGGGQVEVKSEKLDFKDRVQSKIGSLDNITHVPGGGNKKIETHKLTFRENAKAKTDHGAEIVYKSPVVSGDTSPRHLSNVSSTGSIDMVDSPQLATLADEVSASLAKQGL
The test system of data set [3] is NFTs / cortical tau-rich regions. The experiment in a line: digital autoradiography with [18F]Co. No. 1 on human AD visual cortex slices, with blocking. It counts as binding. The note with it: blocker 1 μM; human AD visual cortex slices. The method, then:
Adjacent slices were immunostained for tau pathology (B, AT8) and for amyloid beta pathology (C, 4G8).
a) Air-dried frozen, 10-μm-thick slices of the visual cortex of an AD-patient (with Braak stage V-VI) were incubated for 60 min with [^18F]Co. No. 1 (7.4 kBq/500 μL per slice) and subsequently washed with mixtures of PBS and ethanol as described elsewhere (Xia C. F., Arteaga J., Chen G., et al. Alzheimer's Dement. 2013, 1-11). To assess specificity of binding, slices were incubated with tracer in the presence of 1 μM of authentic T808 or Co. No. 1. After drying, slices were exposed to a phosphor storage screen (super-resolution screen, Perkin Elmer). Screens were read in a Cyclone Plus system (Perkin Elmer, Waltham, MA, U.S.A.) and analyzed using Optiquant software. Results are expressed as digital light units per square mm (DLU/mm^2). Adjacent AD slices were immunostained with anti-tau (AT8) and anti-Aβ antibodies (4G8), to correlate with [^18F]Co. No. 1 binding.

For another data set, the target named is aggregated tau (Homo sapiens, UniProt P10636). The note with it: literature; cited from earlier work.
aggregated tau, sequence (P10636 1-441 isoform P10636-8): as above
Data set [4] addresses peripheral cortical benzodiazepine receptors in activated microglia (Homo sapiens, UniProt P30536). As to conditions: literature; cited from earlier work.
The target in data set [5] is T2, amyloid plaque-rich, NFT-poor AD brain homogenates (Homo sapiens, UniProt P05067).
T2 construct: amyloid plaques which form by aggregation of beta-amyloid peptide; host or cells: AD brain homogenates
T2 sequence (P05067 672-713 limits assumed): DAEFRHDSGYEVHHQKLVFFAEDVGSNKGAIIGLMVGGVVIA
The note with it: literature; cited from earlier work.

Data set [6] relates to human AD brain cortex homogenates containing abundant NFT. The note with it: literature; cited from earlier work.
The conditions of data set [7]: literature; cited from earlier work.

peripheral cortical benzodiazepine receptors in activated microglia, sequence (P30536 whole entry): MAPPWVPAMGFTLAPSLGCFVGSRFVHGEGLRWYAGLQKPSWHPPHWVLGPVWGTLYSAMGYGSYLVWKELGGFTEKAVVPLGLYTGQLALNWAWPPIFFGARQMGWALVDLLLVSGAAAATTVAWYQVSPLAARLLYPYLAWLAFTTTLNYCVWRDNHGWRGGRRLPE

As to `Cc1cnc(Nc2ccc3cnccc3c2)cc1F` [[^3H]-Co. No. 1], the “tracer binding to AD brain slices containing tau and Aβ pathology” value in data set [1] was “binds”. Besides, the “tracer binding to tau-negative AD tissue containing only Aβ plaques” value in data set [2] was “does not bind”. In the data set on MAO, the “tracer binding to MAO-rich human tissue (striatum)” value is reported as “no binding”.
Turning to `CNc1ccc(-c2ccc3cc(OC[C@H](O)C[18F])ccc3n2)cn1` [^18F-THK5351], the “off-target binding in PET imaging of the human brain” value on monoamine oxidase MAO-B is recorded as “confounded by off-target binding”. Moreover, on PHF, the “affinity to PHF” value was “high affinity”.
Regarding `CNc1ccc(-c2ccc3cc(OC[C@H](O)CF)ccc3n2)cn1` [[^3H]-THK-5351, reference compound], in [2], the “tracer binding to tau-negative AD tissue containing only Aβ plaques” value is “binds”. Also, the “tracer binding to MAO-rich human tissue (striatum)” value in the data set on MAO is given as “binds”.
Take `FCCC1CCN(c2ccn3c(n2)nc2ccccc23)CC1` [T808]: in [3], the “inhibition of [18F]Co. No. 1 binding” value was 99%. Besides, on aggregated tau, the Kd was 22 nM and the “selectivity for tau over Aβ aggregates” value was 27 fold.
As for `CCC(C)N([11CH3])C(=O)c1cc2ccccc2c(-c2ccccc2Cl)n1` (centres unmarked) [[^11C]PK11195], the “brain retention, patients versus healthy volunteers” value in [4] is “failing to show any differences”.
Regarding `Nc1c(F)ccc2cnc(-n3ccc4ccncc43)cc12` [^18F-MK-6240, 6-fluoro-3-(1H-pyrrolo[2,3-c]pyridine-1-yl)isoquinoline-5-amine], the “binding to amyloid plaque-rich, NFT-poor AD brain homogenates” value in data set [5] was “binds poorly”. In data set [6], the “binding to human AD brain cortex homogenates containing abundant NFT” value is “binds with high affinity”. Besides, the “defluorination as skull uptake” value in data set [7] was “Moderate defluorination”.

The values are drawn from patent US12006302B2, “Tau PET imaging ligands” (Janssen Pharmaceutica NV, priority 2016, dated 2024).
